Measured values as given in publication PMC6019444, “Activation of the Immune-Metabolic Receptor GPR84 Enhances Inflammation and Phagocytosis in Macrophages” (Frontiers in Immunology, 2018).

Target: GPR84 (Mus musculus, UniProt Q8CIM5)
Assay: real-time cell impedance in LPS-primed mouse BMDMs, WT versus GPR84-/-
Type: cell-based

Sequence of GPR84 (Q8CIM5 whole entry): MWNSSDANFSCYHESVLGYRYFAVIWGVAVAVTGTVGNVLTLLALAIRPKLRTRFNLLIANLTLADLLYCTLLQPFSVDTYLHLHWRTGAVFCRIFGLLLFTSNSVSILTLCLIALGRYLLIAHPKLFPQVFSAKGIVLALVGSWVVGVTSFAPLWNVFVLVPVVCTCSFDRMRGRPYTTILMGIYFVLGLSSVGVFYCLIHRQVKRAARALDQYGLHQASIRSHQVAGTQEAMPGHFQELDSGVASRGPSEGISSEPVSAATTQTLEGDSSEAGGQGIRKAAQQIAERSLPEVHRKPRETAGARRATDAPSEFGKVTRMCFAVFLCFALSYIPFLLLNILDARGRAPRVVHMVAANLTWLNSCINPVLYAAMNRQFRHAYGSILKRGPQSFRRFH

Compound: CCCCCCCCNc1cc(=O)[nH]c(=O)[nH]1 [6-OAU, 6-(octylamino) pyrimidine-2,4(1H,3H)-dione]
- real-time cell impedance in LPS-primed mouse BMDMs, WT versus GPR84-/-: no response was observed when adding any dose of 6-OAU to GPR84^−/− cells
